Test: recombinant barcode read abundance after kanamycin selection (control-corrected) (log10(CPM+1)); higher = more efficient recombination; sequences stand for … in AGTGCAGAGAAAATCGGCCAGTTTTCTCTGCCTGCAGTCCGCATGCCGT…AGATTTATGCAGCGGACTGCCTTTCTCCCAAAGTGATAAACCGGACAGTATCATGGACCGGTTTTCCCGGTAATCCGTATTTGCAAGGTTGGTTTCACT; site = the 11-nt target
Outline: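 For this pooled screen, each oligo contained a promoter, a target, a barcode and the J23119-driven first 104 bases of the bridge RNA. Gibson cloning placed it into a vector supplying the remaining 73 bp and a T7-inducible recombinase, and the pool was co-electroporated into E. coli with a donor plasmid. Recombination efficiency is derived from barcode counts per million at recombinant junctions after averaging and control correction, and is expressed on a log scale as log10(CPM+1), with selection on chloramphenicol/ampicillin/kanamycin plus 0.1 mM IPTG against a chloramphenicol/ampicillin LB agar control.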
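Also: IS621 recombinase and bridge RNA in Escherichia coli cells.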

Row | Sequence | recombinant barcode read abundance (log10)
1 | GGGAACCCTTGGGTTCTAACCTGTTGCAT (site AGGAACTCTAT) | 0.115
2 | GGGAACCCTTGGGTTCTAACCTGTTGCAT (site GGGAACCCTAT) | 1.96
3 | GGGACGACTTGGGTTCTAACCTGTTGCTT (site GGGACGACTAA) | 1.04
4 | GGGACGACTTGGGTTCTAACCTGTTGCTT (site GGGACGACTTA) | 0.0442
5 | GGGACTACTTGGGTTCTAACCTGTTGCCG (site ACTCGCTCTGT) | 0.0845
6 | GGGACTACTTGGGTTCTAACCTGTTGCCG (site GGGACTACTCG) | 0.876
7 | GGGATCCCTTGGGTTCTAACCTGTTGCGG (site CTCGAATCTAA) | 0.024
8 | GGGATCCCTTGGGTTCTAACCTGTTGCGG (site GGGATCCCTCC) | 2
9 | GGGCAGTCTTGGGTTCTAACCTGTTGCCG (site GGGCAGTCTCG) | 1.78
10 | GGGCAGTCTTGGGTTCTAACCTGTTGCCG (site GGGGCGTCTCG) | 0.14
11 | GGGCCCGCTTGGGTTCTAACCTGTTGCCT (site GGGCCCGCTAG) | 1.84
12 | GGGCCCGCTTGGGTTCTAACCTGTTGCCT (site GGGCCTGCTAG) | 0.154
13 | GGGCCTGCTTGGGTTCTAACCTGTTGCCT (site GGGCCCGCTAG) | 0.645
14 | GGGCCTGCTTGGGTTCTAACCTGTTGCCT (site GGGCCTGCTAG) | 2.1
15 | GGGGAAGCTTGGGTTCTAACCTGTTGCCT (site GAGGAAGCTAG) | 0.276
16 | GGGGAAGCTTGGGTTCTAACCTGTTGCCT (site GCGGAAGCTAG) | 0.343
17 | GGGGAAGCTTGGGTTCTAACCTGTTGCCT (site GGGGAAGCTAG) | 1.73
18 | GGGGAAGCTTGGGTTCTAACCTGTTGCCT (site GTGGAAGCTAG) | 0.291
19 | GGGGATCCTTGGGTTCTAACCTGTTGCGA (site GGGGAGCCTCC) | 0.00823
20 | GGGGATCCTTGGGTTCTAACCTGTTGCGA (site GGGGATCCTTC) | 2.06
21 | GGGGATTCTTGGGTTCTAACCTGTTGCCT (site GGGGATTCTAG) | 2.05
22 | GGGGATTCTTGGGTTCTAACCTGTTGCCT (site GTGGATGCTAG) | 0.0823

Row | Sequence | recombinant barcode read abundance (log10)
23 | GGGGCCTCTTGGGTTCTAACCTGTTGCAA (site AGGGCCTCTCT) | 0.474
24 | GGGGCCTCTTGGGTTCTAACCTGTTGCAA (site GGGGCCTCTTT) | 2.56
25 | GGGGCCTCTTGGGTTCTAACCTGTTGCTG (site GGAGCCTCTGA) | 0.0595
26 | GGGGCCTCTTGGGTTCTAACCTGTTGCTG (site GGGGCCTCTCA) | 3.02
27 | GGGGCTACTTGGGTTCTAACCTGTTGCAC (site GGGGCTACTAG) | 0.58
28 | GGGGCTACTTGGGTTCTAACCTGTTGCAC (site GGGGCTACTGT) | 2.62
29 | GGGGCTTCTTGGGTTCTAACCTGTTGCTT (site GGGGCATCTAA) | 0.129
30 | GGGGCTTCTTGGGTTCTAACCTGTTGCTT (site GGGGCCTCTAA) | 0.762
31 | GGGGCTTCTTGGGTTCTAACCTGTTGCTT (site GGGGCGTCTAA) | 0.343
32 | GGGGCTTCTTGGGTTCTAACCTGTTGCTT (site GGGGCTTCTAA) | 0.913
33 | GGGGTAACTTGGGTTCTAACCTGTTGCCT (site GGGACAACTAG) | 0.0486
34 | GGGGTAACTTGGGTTCTAACCTGTTGCCT (site GGGGTAACTAG) | 0.58
35 | GGGGTCCCTTGGGTTCTAACCTGTTGCCA (site GAGATCCCTTG) | 0.247
36 | GGGGTCCCTTGGGTTCTAACCTGTTGCCA (site GGGGTCCCTTG) | 1.8
37 | GGGTACACTTGGGTTCTAACCTGTTGCTA (site AGGTAGACTTA) | 0.0922
38 | GGGTACACTTGGGTTCTAACCTGTTGCTA (site GGGTACACTTA) | 2.12
39 | GGGTACCCTTGGGTTCTAACCTGTTGCCT (site GAGTACCCTAG) | 0.584
40 | GGGTACCCTTGGGTTCTAACCTGTTGCCT (site GCGTACCCTAG) | 0.126
41 | GGGTACCCTTGGGTTCTAACCTGTTGCCT (site GGGTACCCTAG) | 1.99
42 | GGGTACCCTTGGGTTCTAACCTGTTGCCT (site GTGTACCCTAG) | 0.133
43 | GGGTCGGCTTGGGTTCTAACCTGTTGCGC (site GGGTCGGCTAC) | 0.0769
44 | GGGTCGGCTTGGGTTCTAACCTGTTGCGC (site GGGTCGGCTCC) | 0.0276

Row | Sequence | recombinant barcode read abundance (log10)
45 | GGGTCGGCTTGGGTTCTAACCTGTTGCGC (site GGGTCGGCTGC) | 1.88
46 | GGGTCGGCTTGGGTTCTAACCTGTTGCGC (site GGGTCGGCTTC) | 0.0981
47 | GGGTCGGCTTGGGTTCTAACCTGTTGCGG (site GGGTCGGCTAC) | 0.147
48 | GGGTCGGCTTGGGTTCTAACCTGTTGCGG (site GGGTCGGCTCC) | 2.44
49 | GGGTCGGCTTGGGTTCTAACCTGTTGCGG (site GGGTCGGCTGC) | 0.0285
50 | GGGTCGGCTTGGGTTCTAACCTGTTGCGG (site GGGTCGGCTTC) | 0.609
51 | GGGTCGGCTTGGGTTCTAACCTGTTGCTG (site GGGTCGGCTCA) | 1.91
52 | GGGTCGGCTTGGGTTCTAACCTGTTGCTG (site GTCTCGGCTCA) | 0.0584
53 | GGTAAATCTTGGGTTCTAACCTGTTGCCT (site GGTAAATCTAG) | 0.459
54 | GGTAAATCTTGGGTTCTAACCTGTTGCCT (site GGTAAGTCTAG) | 0.359
55 | GGTAACCCTTGGGTTCTAACCTGTTGCGG (site GGTAACCCTCC) | 2.24
56 | GGTAACCCTTGGGTTCTAACCTGTTGCGG (site GGTCACCCTCC) | 0.0921
57 | GGTAACCCTTGGGTTCTAACCTGTTGCGG (site GGTGACCCTCC) | 0.106
58 | GGTAACCCTTGGGTTCTAACCTGTTGCGG (site GGTTACCCTCC) | 0.425
59 | GGTAAGACTTGGGTTCTAACCTGTTGCGG (site GCTAAGACTCA) | 0.0264
60 | GGTAAGACTTGGGTTCTAACCTGTTGCGG (site GGTAAGACTCC) | 1.64
61 | GGTACTCCTTGGGTTCTAACCTGTTGCGT (site GGTACGCCTAC) | 0.18
62 | GGTACTCCTTGGGTTCTAACCTGTTGCGT (site GGTACTCCTAC) | 0.913
63 | GGTAGGACTTGGGTTCTAACCTGTTGCGG (site AGTAGGCCTCC) | 0.0127
64 | GGTAGGACTTGGGTTCTAACCTGTTGCGG (site GGTAGGACTCC) | 2
65 | GGTATAACTTGGGTTCTAACCTGTTGCCA (site ACACCCTCTCT) | 0.124
66 | GGTATAACTTGGGTTCTAACCTGTTGCCA (site GGTATAACTTG) | 0.132

Row | Sequence | recombinant barcode read abundance (log10)
67 | GGTCCCGCTTGGGTTCTAACCTGTTGCCA (site GGGCCCGCTTA) | 0.485
68 | GGTCCCGCTTGGGTTCTAACCTGTTGCCA (site GGTCCCGCTTG) | 1.77
69 | GGTCGAGCTTGGGTTCTAACCTGTTGCCT (site GGTCGAGCTAG) | 1.13
70 | GGTCGAGCTTGGGTTCTAACCTGTTGCCT (site GGTCGCGCTAG) | 0.0193
71 | GGTCGAGCTTGGGTTCTAACCTGTTGCCT (site GGTCGGGCTAG) | 0.146
72 | GGTCGAGCTTGGGTTCTAACCTGTTGCCT (site GGTCGTGCTAG) | 0.671
73 | GGTCGTGCTTGGGTTCTAACCTGTTGCCT (site GGTCGAGCTAG) | 0.304
74 | GGTCGTGCTTGGGTTCTAACCTGTTGCCT (site GGTCGCGCTAG) | 0
75 | GGTCGTGCTTGGGTTCTAACCTGTTGCCT (site GGTCGGGCTAG) | 0.106
76 | GGTCGTGCTTGGGTTCTAACCTGTTGCCT (site GGTCGTGCTAG) | 1.14
77 | GGTCTAACTTGGGTTCTAACCTGTTGCCT (site GGTCAAACTAG) | 0.0448
78 | GGTCTAACTTGGGTTCTAACCTGTTGCCT (site GGTCCAACTAG) | 0.631
79 | GGTCTAACTTGGGTTCTAACCTGTTGCCT (site GGTCGAACTAG) | 0.128
80 | GGTCTAACTTGGGTTCTAACCTGTTGCCT (site GGTCTAACTAG) | 0.649
81 | GGTCTGCCTTGGGTTCTAACCTGTTGCCT (site AGTCTGCCTAG) | 0.171
82 | GGTCTGCCTTGGGTTCTAACCTGTTGCCT (site CGTCTGCCTAG) | 0.252
83 | GGTCTGCCTTGGGTTCTAACCTGTTGCCT (site GGTCTGCCTAG) | 0.375
84 | GGTCTGCCTTGGGTTCTAACCTGTTGCCT (site TGTCTGCCTAG) | 0.397
85 | GGTGAGACTTGGGTTCTAACCTGTTGCCA (site AGTGGGACTTG) | 0.235
86 | GGTGAGACTTGGGTTCTAACCTGTTGCCA (site GGTGAGACTTG) | 2.14
